{"source": "patent US7189753B1", "about": "“Preemptive prophylaxis of migraine” (priority 1997, dated 2007)", "system": "onset of the headache phase of migraine", "experiment": "Open label pilot study of oral naratriptan 2.5 mg taken as a single dose during prodrome", "type": "in vivo, human", "description": "An open label pilot study was conducted to determine whether oral naratriptan 2.5 mg taken as a single dose during the prodrome could prevent the onset of the headache phase of migraine. […] Twenty patients recruited at 4 study sites were administered oral naratriptan 2.5 mg after onset of prodrome symptoms for a total of 63 prodromes. […] The pain severity of headaches that were not prevented were reduced as compared to baseline pain severity of migraine attacks not treated with naratriptan. An additional 13 patients recruited at a fifth site were also treated. […] Upon review, all 13 patients reported onset of headache within 3 hours after administration of naratriptan. Eighty-seven percent of prodromes in this patient group were treated ≦2 hours before onset of headache.", "data": [{"smiles": "CNS(=O)(=O)CCc1ccc2[nH]cc(C3CCN(C)CC3)c2c1.Cl", "note": "[naratriptan, N-methyl-3-(1-methyl-4-piperidinyl)-1H-indole-5-ethanesulfonamide monohydrochloride]", "values": [{"measurement": "headaches not prevented that occurred ≦2 hours after treatment", "setting": "4 sites, 15 of the 25 headaches", "value": 60, "unit": "%"}, {"measurement": "pain severity of headaches that were not prevented, compared to baseline pain severity of attacks not treated with naratriptan", "setting": "4 study sites, oral 2.5 mg", "value": "reduced"}, {"measurement": "treated prodromes that did not progress to headache", "setting": "20 patients at 4 study sites, 63 prodromes, oral 2.5 mg after onset of prodrome symptoms", "value": "Sixty"}, {"measurement": "patients reporting headache following treatment", "setting": "additional 13 patients at a fifth site", "value": "All 13 patients reported headache following each treatment"}, {"measurement": "prodromes treated ≦2 hours before onset of headache", "setting": "fifth site, 13 patients", "value": "Eighty-seven"}, {"measurement": "onset of headache after administration", "setting": "fifth site, all 13 patients", "value": "≤ 3", "unit": "h"}, {"measurement": "preventing the onset of the headache phase of migraine", "setting": "oral 2.5 mg single dose during prodrome, open label", "value": "effective in preventing the onset of the headache phase of migraine"}]}]}
